In patent publication US20250099493A1, “PHOSPHONATES AS INHIBITORS OF ENPP1 AND CDNP” (STINGRAY THERAPEUTICS, INC., priority 2020, published 2025):
pIC50: −log10 of the molar value. Read-outs that look alike come from different tables or passages of the source.

Experiments:
Recombinant CdnP Protein = Recombinant CdnP Protein (Mycobacterium tuberculosis (strain ATCC 25618 / H37Rv), UniProt P71615); experiment: CdnP HPLC Assay with C-DI-AMP Substrate; type: biochemical, M. tuberculosis; details: HPLC AMP peak area, read-out: Inhibition percentage of CdnP; for inhibition at 100 µM: 100 μM compound
[1] = target: Recombinant Human ENPP-1 Protein (Homo sapiens (Human), UniProt P22413); experiment: ENPP1 Inhibition Assay; type: biochemical
Method: Assay Buffer: 1 mM CaCl2), 0.2 mM ZnCl2, 50 mM Tris, pH 9.0. Substrate: 8 mM Thymidine 5′-monophosphate p-nitrophenol ester sodium salt (Sigma Cat #T4510). Enzyme: […] Recombinant Human ENPP-1 Protein (R&D Cat #6136-EN-010) in DMSO in 96-well clear assay plates.
An eight point serial dilution of drugs was prepared in 10× in assay buffer with the final assay concentrations starting at 10 μM, 3 μM, 1 μM, 0.3 μM and 0 μM. A dilution of DMSO was included as a control. The assay plate was set up as follows with each well in duplicate: 81 μL assay buffer+10 μL ENPP1 inhibitor or DMSO+5 μL Substrate+4 μL Enzyme. Both the enzyme and substrate was added to opposite sides of the well to ensure that there was no interaction until all wells had both components. The plate was then centrifuged gently for 10 seconds, followed by an incubation at 37° C. for 45 minutes. The reaction was quantified by measuring absorbance at 405 nm using an Envision plate reader.
IC50 values are determined using GraphPad Prism 5 software. The data were entered as an X-Y plot into the software as percent inhibition for each concentration of the drug. The concentration values of the drug were log transformed and the nonlinear regression was carried out using the “sigmoidal dose-response (variable slope)” option within the GraphPad software to model the data and calculate IC50 values. The IC50 values reported are the concentration of drug at which 50% inhibition was reached.

Recombinant CndP (CdnP) = Recombinant CndP (CdnP) (Mycobacterium tuberculosis (strain ATCC 25618 / H37Rv), UniProt P71615); experiment: CndP Assay with BPNPP substrate; type: biochemical, M. tuberculosis; details: pH 8.0, 37° C. 45 minutes, read-out: Inhibition of CdnP IC50
[2] = substrate thymidine 5′-monophosphate p-nitrophenol ester, pH 9.0, 37° C. 45 minutes, read-out: Inhibition of ENPP1 IC50

Recombinant Human ENPP-1 Protein, sequence (P22413 99-925): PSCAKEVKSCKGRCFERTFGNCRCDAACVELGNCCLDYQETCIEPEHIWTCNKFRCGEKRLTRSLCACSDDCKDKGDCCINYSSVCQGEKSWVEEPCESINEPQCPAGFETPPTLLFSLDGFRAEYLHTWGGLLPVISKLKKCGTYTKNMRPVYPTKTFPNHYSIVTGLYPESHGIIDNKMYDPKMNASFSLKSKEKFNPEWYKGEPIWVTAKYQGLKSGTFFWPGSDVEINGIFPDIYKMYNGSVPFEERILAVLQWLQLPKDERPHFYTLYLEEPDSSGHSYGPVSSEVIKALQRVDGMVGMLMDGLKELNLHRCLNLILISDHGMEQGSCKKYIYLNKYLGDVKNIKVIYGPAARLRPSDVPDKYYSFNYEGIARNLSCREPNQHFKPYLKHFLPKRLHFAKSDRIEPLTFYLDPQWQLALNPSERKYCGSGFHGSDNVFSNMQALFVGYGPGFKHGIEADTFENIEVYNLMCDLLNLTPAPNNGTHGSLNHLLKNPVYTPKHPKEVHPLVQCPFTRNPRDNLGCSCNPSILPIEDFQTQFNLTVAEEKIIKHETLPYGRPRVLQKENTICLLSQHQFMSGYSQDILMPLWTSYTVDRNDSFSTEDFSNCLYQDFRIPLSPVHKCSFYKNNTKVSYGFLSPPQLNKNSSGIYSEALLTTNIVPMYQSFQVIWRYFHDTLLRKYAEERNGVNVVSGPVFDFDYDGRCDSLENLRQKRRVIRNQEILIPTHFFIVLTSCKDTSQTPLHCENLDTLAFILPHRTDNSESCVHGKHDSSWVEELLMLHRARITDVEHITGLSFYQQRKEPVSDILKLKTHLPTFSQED
Recombinant CdnP Protein, sequence (P71615 whole entry, looked up): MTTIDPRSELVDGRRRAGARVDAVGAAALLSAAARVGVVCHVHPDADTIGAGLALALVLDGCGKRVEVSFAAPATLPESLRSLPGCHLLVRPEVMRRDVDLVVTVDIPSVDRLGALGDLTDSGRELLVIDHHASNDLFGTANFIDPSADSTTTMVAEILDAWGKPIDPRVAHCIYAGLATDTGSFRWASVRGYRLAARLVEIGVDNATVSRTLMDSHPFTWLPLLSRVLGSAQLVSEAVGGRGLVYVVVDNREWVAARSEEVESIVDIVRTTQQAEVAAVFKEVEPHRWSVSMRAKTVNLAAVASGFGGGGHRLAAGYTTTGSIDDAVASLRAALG
Recombinant CndP (CdnP), sequence (P71615 whole entry, looked up): as above

| Compound | inhibition at 1 µM (Recombinant CdnP Protein; 1 μM compound) | inhibition at 10 µM (Recombinant CdnP Protein; 10 μM compound) | inhibition at 100 µM (Recombinant CdnP Protein) | pIC50 [1] | pIC50 (Recombinant CndP (CdnP)) | pIC50 [1, 2] |
| --- | --- | --- | --- | --- | --- | --- |
| COc1cc2ncnc(N3CCC[C@@H](CP(=O)(O)O)CC3)c2cc1OC [Compound I-1, (R)-((1-(6,7-dimethoxyquinazolin-4-yl)azepan-4-yl)methyl)phosphonic acid] | < 20% | > 50% | > 50% | 7.00 to 8.00 | 6.00 to 7.00 |  |
| COc1cc2ncnc(N3CCC[C@H](CP(=O)(O)O)CC3)c2cc1OC [Compound I-2, (S)-((1-(6,7-dimethoxyquinazolin-4-yl)azepan-4-yl)methyl)phosphonic acid] |  |  |  |  | 6.00 to 7.00 | < 7.00 |
| COc1cc2ncnc(N3CCCC(CP(=O)(O)O)CC3)c2cc1OC (stereo not drawn) [Compound I-3, ((1-(6,7-dimethoxyquinazolin-4-yl)azepan-4-yl)methyl)phosphonic acid] |  |  |  | 7.00 to 8.00 | 6.00 to 7.00 |  |
| COc1cc2ncnc(N3CCCC(CCP(=O)(O)O)CC3)c2cc1OC (stereo not drawn) [Compound I-4, (2-(1-(6,7-dimethoxyquinazolin-4-yl)azepan-4-yl)ethyl)phosphonic acid] |  |  |  |  | > 7.00 | > 8.00 |
| COc1cc2ncnc(N3CCCC(CCCP(=O)(O)O)CC3)c2cc1OC (stereo not drawn) [Compound I-5, (3-(1-(6,7-dimethoxyquinazolin-4-yl)azepan-4-yl)propyl)phosphonic acid] |  |  |  | 7.00 to 8.00 | 6.00 to 7.00 |  |
| COc1cc2ncnc(N3CCCN(CP(=O)(O)O)CC3)c2cc1OC [Compound I-6, ((4-(6,7-dimethoxyquinazolin-4-yl)-1,4-diazepan-1-yl)methyl)phosphonic acid] |  |  |  |  | < 6.00 | < 7.00 |
| COc1cc2ncc(C#N)c(N3CCCC(CP(=O)(O)O)CC3)c2cc1OC (stereo not drawn) [Compound I-7, ((1-(3-cyano-6,7-dimethoxyquinolin-4-yl)azepan-4-yl)methyl)phosphonic acid] |  |  |  |  | > 7.00 | > 8.00 |
| COc1cccc2c(N3CCCC(CP(=O)(O)O)CC3)ccnc12 (stereo not drawn) [Compound I-8, ((1-(8-methoxyquinolin-4-yl)azepan-4-yl)methyl)phosphonic acid] |  |  |  |  | 6.00 to 7.00 | < 7.00 |
| COc1cccc2c(N3CCCC(CP(=O)(O)O)CC3)ncnc12 (stereo not drawn) [Compound I-9, ((1-(8-methoxyquinazolin-4-yl)azepan-4-yl)methyl)phosphonic acid] |  |  |  |  | 6.00 to 7.00 | > 8.00 |
| COc1cc2ncnc(N3CCCC(CP(=O)(OCOC(=O)C(C)C)OCOC(=O)C(C)C)CC3)c2cc1OC (stereo not drawn) [Compound I-10, ((((1-(6,7-dimethoxyquinazolin-4-yl)azepan-4-yl)methyl)phosphoryl)bis(oxy))bis(methylene) bis(2-methylpropanoate)] |  |  |  |  | < 6.00 | < 7.00 |
| COc1cc2ncnc(-c3ccc(CP(=O)(O)O)nc3)c2cc1OC [II-1, ((5-(6,7-dimethoxyquinazolin-4-yl)pyridin-2-yl)methyl)phosphonic acid] |  |  | > 50% |  |  |  |
